Columns and labels:
[1] = Oral absorption of episesamin and its transfer into blood circulation (I), LC-MS/MS of plasma; parameters: species or system SD (IGS) male rats; settings: male, SD (IGS), rat, in vivo, 10 mg/kg
Protocol: (§1) SD (IGS) male rats (6-wk old) were purchased from CHARLES RIVER JAPAN INC. and habituated in the test environment for a week; the animals that were seen to grow normally were subjected to the test. The rats fasted overnight were divided into six groups each consisting of 5 heads; the high purity sesamin and episesamin obtained in Example 1 were incorporated at varying weight ratios of 6:4, 5:5, 4:6, 3:7, 1:9 and 0:10 to prepare sesamin/episesamin mixtures, which were dissolved in olive oil at a dose of 10 mg/kg and administered perorally to the rats via a feeding tube. […] After adding an internal standard, solid-phase extraction was performed with Oassis HLB and the liquid extract was concentrated under vacuum, suspended in methanol, passed through a filter, and subjected to LC-MS/MS for quantification of sesamin and episesamin. The quantity of sesamin or episesamin was determined from the ratio between the peak area of sesamin or episesamin and that of UDESMIN (Funakoshi Co, Ltd.) used as the internal standard. […]
The concentration of episesamin in blood peaked in about 6 hours after the administration, then decreased gradually until it became almost undetectable in 24 hours. From the blood concentration curve for 0-24 hours, the area under the curve (AUC) was determined as an index of absorbed quantity. […]

[2] = Oral absorption of episesamin and its transfer into blood circulation (II), lowered sesamin ratios; parameters: species or system rats; settings: male, SD (IGS), rat, in vivo, 10 mg/kg
Protocol: as §1
With a view to prescribing effective mixing ratios of sesamin, the action of further lowered ratios of sesamin was evaluated in accordance with the method of Example 2. […]

[3] = system: Deoxycorticosterone Acetate-Salt (DOCA-Salt) Induced Hypertension Model Rats; test: Blood pressure lowering action in DOCA-salt induced hypertension model rats (tail-cuff SBP); format: in vivo, SD male rats; settings: 100 mg/kg single oral; for changes in blood pressure for 24 hours after the single administration: Example 4, FIG. 3, n=5-7; for changes in blood pressure 8 hours after the administration: Example 4, FIG. 4
Protocol: SD male rats (6-wk old) (purchased from Japan SLC, Inc.) were subjected to surgery for removing the right kidney under anesthetization with Nembutal. After recuperation for a week, the rats were administered subcutaneously with DOCA-salt twice a week at a dose of 15 mg/kg, and allowed to drink 1% saline. The systolic blood pressure (SBP) of each animal was measured by a tail-cuff method with a non-invasive automatic blood pressure measuring apparatus (BP-98A, Softron, Tokyo). At 5 weeks after the start of treatment with DOCA-salt, blood pressure was measured and the animals in which adequate elevation of blood pressure was verified were used in the following experiment. Rats fasted for 8 hours were divided into a control group and three test groups. The control group was administered olive oil only. For the test groups, the high purity sesamin and episesamin obtained in Example 1 were incorporated at varying weight ratios of 10:0, 5:5 and 0:10 to prepare sesamin/episesamin mixtures, which were suspended in olive oil at a dose of 100 mg/kg. Single oral administration of olive oil or the suspension was effected via a feeding tube. Both before the administration and 2, 4, 6, 8, 10, 12 and 24 hours after the administration, SBP measurement was conducted. Diet was applied after the blood pressure measurement at 12 hours. Testing was conducted at 1-wk intervals and the same head was subjected to no more than three measurements.
Sesamin and episesamin were incorporated at varying weight ratios of 5:5, 3:7 and 1:9 to prepare sesamin/episesamin mixtures, which were dissolved in olive oil at a dose of 50 mg/kg. Single oral administration of the solution was effected via a feeding tube, and for blood pressure measurement was conducted.

[4] = system: β-oxidation genes; test: Effects on the expression of β-oxidation genes, quantitative RT-PCR; format: in vivo, Wistar male rats; settings: Example 6, FIGS. 6A/6B; 200 mg/kg peroral three times at 24-hr intervals, 4 hours after final administration
Protocol: Wistar male rats (6-wk old) were purchased from CLEA Japan, Inc. and habituated in the test environment for a week; the animals that were seen to grow normally were subjected to the test. The rats were divided into six groups each consisting of 5 heads. The control group was administered with olive oil only. For the test groups, the high purity sesamin and episesamin obtained in Example 1 were incorporated at varying weight ratios of 10:0, 5:5, 3:7, 1:9 and 0:10 to prepare sesamin/episesamin mixtures, which were suspended in olive oil at a dose of 200 mg/kg. The rats were administered perorally with olive oil or the suspension three times at 24-hr intervals. Four hours after the final administration, the kidney was removed from each rat under anesthetization with Nembutal; after extracting RNA, effects on the expression of 10 β-oxidation genes were investigated by quantitative RT-PCR using TaqMan chemistry (Heid C A, Stevens J, Livak K J, Williams P M, Real time quantitative PCR, Genome Res. 1996 6(10):986-94).
In contrast, each of the groups administered with the sesamin/episesamin mixture experienced more elevated gene expression than the group administered with episesamin alone. The effect of the mixing ratio was somewhat variable from one gene to another but no significant difference was found among the three groups administered with the sesamin/episesamin mixture.

[5] = system: β-oxidation enzymes in the liver; settings: rats, separately administered orally; cited from earlier work
[6] = system: fatty acid synthases; settings: rats, separately administered orally; cited from earlier work
[7] = rat, in vivo, po; cited from earlier work

| SMILES | percent absorption of episesamin (AUC 0-24 hours divided by relative amount of episesamin administered) [1] | percent absorption of episesamin [2] | changes in blood pressure for 24 hours after the single administration [3] | changes in blood pressure 8 hours after the administration [3] | expression of β-oxidation genes [4] | gene expression and enzymatic activity of β-oxidation enzymes in the liver compared with sesamin [5] | activity for inhibiting fatty acid synthases, sesamin versus episesamin [6] | transfer into organs relative to sesamin [7] |
| --- | --- | --- | --- | --- | --- | --- | --- | --- |
| c1cc2c(cc1[C@H]1OC[C@H]3[C@@H]1CO[C@H]3c1ccc3c(c1)OCO3)OCO2 [episesamin] | 72.5% | 59.7% | No significant changes | −6 mmHg | many genes were expressed in increased amounts | markedly increased | no difference between sesamin and episesamin | at least twice as much as that of sesamin |
| c1cc2c(cc1[C@H]1OC[C@H]3[C@@H]1CO[C@@H]3c1ccc3c(c1)OCO3)OCO2 [sesamin] | – | – | No significant changes | −13 mmHg | hardly rose | – | no difference between sesamin and episesamin | – |

— patent US20080275110A1, “Sesamin/Episesamin Compositions” (priority 2004, published 2008)
